Assay results published in US6939968B2, “Atropisomers of 3-substituted-4-arylquinolin-2-one derivatives” (Bristol-Myers Squibb Company, priority 2002, dated 2005).
Where “and” joins values, the source holds several entries; their conditions need not be identical. Identical values can stand only once.

Experiments:
[1] = system: cloned mammalian (mSlo or hSlo) BK channels heterologously expressed in Xenopus oocytes; assay: BK-mediated outward current in Xenopus oocytes, two-electrode voltage clamp; assay type: cell-based; conditions: for Current: compounds at 10 μM, IBTX at supramaximal concentration (50-100 nM); for BK Current: at 10 μM, percent increase over BK current in controls, voltage step to +140 mV, IBTX-sensitive current
Procedure: The ability of the compounds of the invention to open BK channels and increase whole-cell outward (K+) BK-mediated currents was assessed under voltage-clamp conditions by determining their ability to increase cloned mammalian (mSlo or hSlo) BK—mediated outward current heterologously expressed in Xenopus oocytes [Butler, A., et al., Science, 261: 221-224 (1993); Dworetzky, S. I., et al., Mol. Brain Res., 27: 189-193 (1994); Gribkoff, V. K., et al., Mol. Pharmacol., 50:206-217 (1996)]. The two BK constructs employed represent nearly structurally identical homologous proteins, and have proven to be pharmacologically indistinguishable in our tests. To isolate BK current from native (background, non-BK) current, the specific and potent BK channel-blocking toxin iberiotoxin (IBTX) [Galvez, A., et al., J. Biol. Chem., 265: 11083-11090 (1990)] was employed at a supramaximal concentration, e.g., 50-100 nanomolar (“nM”). The relative contribution of BK channel-mediated current to total outward current was determined by subtraction of the current remaining in the presence of IBTX (non-BK current) from the current profiles obtained in all other experimental conditions (control, drug, and wash) [Gribkoff, V. K. et al., Mol. Pharmacol., 50:206-217 (1996)]. […] All compounds were tested in 5-10 oocytes and are reported at the indicated concentration of 10 micromolar (“μM”); the effect of the selected compounds of the invention on BK current was expressed as the percent of control IBTX-sensitive current at a single transmembrane voltage (+140 mV) and is listed in Table 1. Recordings were accomplished using standard two-electrode voltage clamp techniques [Stuhmer, W., et al., Methods in Enzymology, Vol. 207: 319-339 (1992)]; voltage-clamp protocols consisted of 500-750 milliseconds (“ms”) duration step depolarizations, from a holding potential of −60 mV, to a final voltage up to +140 mV in 20 mV steps. Table 2 lists the current-voltage (I-V) data for two compounds of the invention, applied to oocytes at a concentration of 10 μM. The experimental media (modified Barth's solution) consisted of millimolar (“mM”): NaCl (88), NaHCO3 (2.4), KCl (1.0), HEPES (10), MgSO4 (0.82), Ca(NO3)2 (0.33), CaCl2 (0.41); pH 7.5.

[2] = system: stress-induced colonic motility (fecal pellet output); assay: Air jet stress-induced colonic motor activity; assay type: in vivo; conditions: rats, 20 mg/kg ip
Procedure: Environmental stress is believed to play a role in irritable bowel syndrome and other altered bowel motility states. […] Based on this, we tested the hypothesis that maxi-K^+potassium channel openers of the present invention can be effective in reducing stress-induced acceleration in colonic motility, as indexed by fecal pellet output.
Rats were randomly divided into 2 groups and treated with vehicle (polyethylene glycol (400 grams per mole), 1 mL/kg, ip) or the compound of Example 1 in racemate form (20 mg/kg) at time zero. At 1.5 hr post-treatment, each rat was partially restrained in plexiglas container and was subjected to air-jet stress. This was brought about by exposing each of the partially-restrained animals to 3-4 episodes of 2 minute long air jets with an interval of 8-10 minutes between episodes. The fecal output was collected and the wet weight was recorded. The data were analyzed by combining individual output within each group to calculate a group mean and the means were compared using a statistical test (unpaired, two-tailed t-test; p<0.05).

O=c1[nH]c2ccc(C(F)(F)F)cc2c(-c2cc(Cl)ccc2O)c1CCO (racemic) [Example 1, 4-(5-Chloro-2-hydroxyphenyl)-3-(2-hydroxyethyl)-6 (trifluoromethyl)-2(1H)-Quinolinone]
Current ([1]; voltage 0 mV): 0.2 μA | Current ([1]; voltage 20 mV): 0.7 μA | Current ([1]; voltage 40 mV): 1.8 μA | Current ([1]; voltage 60 mV): 3.3 μA | Current ([1]; voltage 80 mV): 4.9 μA | Current ([1]; voltage 100 mV): 6.6 μA | Current ([1]; voltage 120 mV): 8.4 μA | Current ([1]; voltage 140 mV): 10.2 μA | Current ([1]; voltage −20 mV): 0 μA | Current ([1]; voltage −40 mV): 0 μA | fecal output (wet weight, group mean) ([2]; air-jet stress 1.5 hr post-treatment, vehicle group 0.37 grams): 0.03 grams | animals showing a defecatory response to air-jet ([2]; vehicle group 9/12): 3 out of 11

iberiotoxin (QFTDVDCSVSKECWSVCKDLFGVDRGKCMGKKCRCYQ; UniProt P24663 1-37, looked up) [IBTX, reference compound]
Current ([1]; voltage 0 mV): 0 μA | Current ([1]; voltage 20 mV): 0 μA | Current ([1]; voltage 40 mV): 0 μA | Current ([1]; voltage 60 mV): 0 μA | Current ([1]; voltage 80 mV): 0.1 μA | Current ([1]; voltage 100 mV): 0.2 μA | Current ([1]; voltage 120 mV): 0.6 μA | Current ([1]; voltage 140 mV): 1.2 μA | Current ([1]; voltage −20 mV): 0 μA | Current ([1]; voltage −40 mV): 0 μA

Cn1c(=O)c(CCO)c(-c2cc(Cl)ccc2O)c2cc(C(F)(F)F)ccc21 [Example 2]
Current ([1]; voltage 0 mV): 0 μA | Current ([1]; voltage 20 mV): 0 μA | Current ([1]; voltage 40 mV): 0.2 μA | Current ([1]; voltage 60 mV): 0.6 μA | Current ([1]; voltage 80 mV): 1.4 μA | Current ([1]; voltage 100 mV): 2.5 μA | Current ([1]; voltage 120 mV): 3.9 μA | Current ([1]; voltage 140 mV): 5.6 μA | Current ([1]; voltage −20 mV): 0 μA | Current ([1]; voltage −40 mV): 0 μA

O=c1[nH]c2ccc(C(F)(F)F)cc2c(-c2cc(Cl)ccc2O)c1CCO (single isomer, unassigned) [Example 3-atropisomer A, (−) 4-(5-Chloro-2-hydroxy-phenyl)-3-(2-hydroxy-ethyl)-6-trifluoromethyl-1H-quinolin2-one]
BK Current ([1]; listed as 3-atropisomer A): 291.8 ± 26.8%

Cn1c(=O)c(CCO)c(-c2cc(Cl)ccc2O)c2cc(C(F)(F)F)ccc21 (single isomer, unassigned) [Example 5-atropisomer A, (−) 4-(5-Chloro-2-hydroxy-phenyl)-1-methyl-3-(2-hydroxy-ethyl)-6-trifluoromethyl-1H-quinolin2-one]
BK Current [1]: 360.8 ± 29.6% and 183.6 ± 9.50%

O=c1[nH]c2ccc(C(F)(F)F)cc2c(-c2cc(Cl)ccc2O)c1CCO (single isomer, unassigned) [Example 3-atropisomer B, (+) 4-(5-Chloro-2-hydroxy-phenyl)-3-(2-hydroxy-ethyl)-6-trifluoromethyl-1H-quinolin2-one]
BK Current ([1]; listed as 3-atropisomer B): 213.9 ± 21.4%
